According to US20040022842A1, “Liposome preparations containing oxaliplatin” (Mebiopharm Co., Ltd., priority 2002, published 2004):

System: Colon 26 cells
Assay: Cytotoxicity of oxaliplatin (L-OHP) liposomes against tumor cells, WST-1 assay (Example 7), Colon 26
Format: cell-based
Conditions: Colon 26 and AsPC-1 cells; comparison of L-OHP solution and liposome preparations
Description: Colon 26 cells and AsPC-1 cells were inoculated on a 96-well plate at 5×10^3 cells per well and pre-incubated with 5% CO2 overnight.
The cells were incubated at 37° C. under 5% CO2 for 4 hours. The test solutions were removed, and the incubation was continued for an additional 2 days, at which time the number of living cells was counted. Cell viability was determined according to the WST-1 assay.
According to the WST-1 assay, the assay solution contained 5 mmol/L WST-1 reagent (10 μL); 20 mmol/L HEPES; 1-methoxy-PMS at 0.2 mmol/L, at pH 7.4. This solution was added to each well, mixed thoroughly, and incubated in a CO2 incubator for 2 hours to allow for color development. The absorbance was then measured on a plate reader at 400-450 nm, with a reference wavelength of >600 nm.

O=C1[O][Pt]2([NH]C3CCCCC3[NH]2)[O]C1=O [L-OHP solution, Oxaliplatin]
relative cytotoxicity in words: showed the highest toxicity
